Results reported in patent US6608082B1, “Treatment of erectile dysfunction using isoquinoline compound melanocortin receptor ligands” (Lion Bioscience AG, priority 1998, dated 2003).
Like-named read-outs stand apart in the source and are kept apart here.

Key:
[1] = biological target: T1, MCR-1 (Homo sapiens, UniProt Q01726); experiment: Melanocortin receptor binding assay, competition with 125I-HP 467, HEK 293 cells expressing hMCR-1; settings: for IC50: read-out: MC-1 IC50; for % Disp. MC-1 10 μM: displacement of 125I-HP 467 at 10 μM isoquinoline compound
T1 construct: expressed in transfected cells; host or cells: HEK 293
T1 sequence (Q01726 whole entry): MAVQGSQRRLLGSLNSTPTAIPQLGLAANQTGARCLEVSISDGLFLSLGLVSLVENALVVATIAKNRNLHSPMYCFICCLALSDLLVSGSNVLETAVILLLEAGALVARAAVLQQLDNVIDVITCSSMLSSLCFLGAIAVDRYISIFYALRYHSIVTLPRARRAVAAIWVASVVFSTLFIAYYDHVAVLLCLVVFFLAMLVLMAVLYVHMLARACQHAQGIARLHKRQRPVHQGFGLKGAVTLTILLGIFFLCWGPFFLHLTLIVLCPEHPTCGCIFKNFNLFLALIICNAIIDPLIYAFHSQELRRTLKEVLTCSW
Summary of the method: (§1)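 Intact-cell competition binding, 2.5 hr at 37 °C, in PBS/10% calf serum/1 mM CaCl2; hMCR-4 cells at 4×10^3 per tube, hMCR-1 cells at 2×10^4 per tube. Filtration on BSA/CaCl2-soaked GF/B, cold 50 mM Tris pH 7.4 washes, scintillation count.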

[2] = biological target: T2, MCR-4 (Homo sapiens, UniProt P32245); experiment: Melanocortin receptor binding assay, competition with 125I-HP 467, HEK 293 cells expressing hMCR-4; settings: for IC50: read-out: MC-4 IC50
T2 construct: expressed in transfected cells; host or cells: HEK 293
T2 sequence (P32245 whole entry): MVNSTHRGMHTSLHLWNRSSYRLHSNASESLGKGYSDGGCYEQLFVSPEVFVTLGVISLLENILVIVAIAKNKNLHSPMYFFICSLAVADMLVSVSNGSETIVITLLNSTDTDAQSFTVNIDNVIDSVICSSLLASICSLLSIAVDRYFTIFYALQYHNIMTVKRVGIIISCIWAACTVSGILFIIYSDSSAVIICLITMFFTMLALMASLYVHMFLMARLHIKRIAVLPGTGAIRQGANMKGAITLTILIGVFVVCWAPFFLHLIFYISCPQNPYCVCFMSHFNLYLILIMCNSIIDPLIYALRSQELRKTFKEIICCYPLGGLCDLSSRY
Summary of the method: as §1

[3] = TRG 2414 library, inhibition of binding of 125I-HP 467, HEK 293 cells expressing MCR-1
[4] = TRG 2414 library, inhibition of binding of 125I-HP 467, HEK 293 cells expressing MCR-4
[5] = inhibition of binding of 125I-HP 467, HEK 293 cells expressing MCR-1, TRG 2414 library
[6] = inhibition of binding of 125I-HP 467, HEK 293 cells expressing MCR-4, TRG 2414 library
[7] = TRG 2406 and TRG 2407 libraries, inhibition of binding of 125I-HP 467
[8] = competition with 125I-HP 467, HEK 293 cells expressing MCR-1
[9] = competition with 125I-HP 467, HEK 293 cells expressing MCR-4
[10] = inhibition of binding of 125I-HP 467, HEK 293 cells expressing MCR-1
[11] = inhibition of binding of 125I-HP 467, HEK 293 cells expressing MCR-4
[12] = TRG 2408 and TRG 2409 libraries, inhibition of 125I-HP 467 binding
[13] = TRG 2405 section, inhibition of binding of 125I-HP 467, HEK 293 cells expressing MCR-1
[14] = TRG 2405 section, inhibition of binding of 125I-HP 467, HEK 293 cells expressing MCR-4

COc1cccc(CNCC2c3ccccc3CN(CCCCC(N)CN)C2c2ccccc2Br)c1 (stereo not drawn) [Cmpd 217]
IC50 [1, 3]: 5560 nM
IC50 [2, 4]: 2420 nM

CC(C)Cc1ccc(C(C)CNC(CN)CCCCN2Cc3ccccc3C(CNCCc3cccc(Cl)c3)C2c2cc(C(F)(F)F)cc(C(F)(F)F)c2)cc1 (stereo not drawn) [TRG 2414-56]
MC-1 IC50 [1, 5]: no fit
IC50 [2, 6]: 42600 nM

CCn1c2ccccc2c2cc(C3C(CNCc4ccccc4O)c4ccccc4CN3CCN)ccc21 (stereo not drawn) [TRG 2406-20]
IC50 [1, 7]: 10800 nM
IC50 [2, 7]: 3300 nM

COc1ccccc1CCNCC1c2ccccc2CN(CCCCC(N)CN)C1c1ccccc1Br (stereo not drawn) [Cmpd 209]
IC50 [1, 3]: 1710 nM
IC50 [2, 4]: 1370 nM

CCCCNc1ccc(C2C(CNCCc3ccccc3)c3ccccc3CN2CCCCC(CN)NCCCC)cc1 (stereo not drawn) [TRG 2411-75]
IC50 [1, 8]: 130 nM
IC50 [2, 9]: 1050 nM

CCNc1ccc(C2C(CN)c3ccccc3CN2CCCC(CN)NCCCCO)cc1 (stereo not drawn) [TRG 2419-8]
IC50 [1, 10]: 1090 nM
IC50 [2, 11]: 6910 nM

NC[C@H](CCCN1Cc2ccccc2C(CNC2CCCCC2)C1c1ccc(Cl)cc1Cl)NCCc1ccccc1 (stereo partly drawn) [TRG 2408-72]
IC50 [1, 12]: 1940 nM
IC50 [2, 12]: 5870 nM

CNC(CN)CCCCN1Cc2ccccc2C(CNc2ccc(OC)cc2)C1c1ccc(Cl)cc1Cl (stereo not drawn) [TRG 2407-9]
IC50 [1, 7]: 2530 nM
IC50 [2, 7]: 6220 nM

CNC(CN)CN1Cc2ccccc2C(CNC2CCCCC2)C1c1ccc([N+](=O)[O-])o1 (stereo not drawn) [TRG 2405-170]
IC50 [1, 13]: 4810 nM
% Disp. MC-1 10 μM ([1]; first of duplicate): 68.4%
% Disp. MC-1 10 μM ([1]; second of duplicate): 57.5%
IC50 [2, 14]: 10200 nM

NCC(N)CCCCN1Cc2ccccc2C(CNCCc2cccc(Cl)c2)C1c1ccc(Oc2ccccc2)cc1 (stereo not drawn) [Cmpd 268]
MC-1 IC50 [1, 3]: no fit
MC-4 IC50 [2, 4]: no fit

CCNc1ccc(C2C(CNC3CCCCC3)c3ccccc3CN2CCCC[C@@H](CN)NCCC2CCCCC2)cc1 (stereo partly drawn) [TRG 2411-58]
IC50 [1, 8]: 220 nM
IC50 [2, 9]: 1110 nM

CCCCNc1ccc(C2C(CNCCc3ccccc3)c3ccccc3CN2CCCCC(CN)NCc2ccc(Cl)cc2)cc1 (stereo not drawn) [TRG 2411-81]
IC50 [1, 8]: 180 nM
IC50 [2, 9]: 1380 nM

NCC(CCCCN1Cc2ccccc2C(CNCCc2cccc(Cl)c2)C1c1ccc(Oc2ccccc2)cc1)NCCc1ccccc1 (stereo not drawn) [TRG 2414-134]
IC50 [1, 5]: 40200 nM
MC-4 IC50 [2, 6]: no fit

CCCOc1ccc(C2C(CNCc3cccc(OC)c3)c3ccccc3CN2CCCCC(N)CN)cc1 (mixture of isomers) [TRG 2414-177]
IC50 [1, 5]: 739 nM
IC50 [2, 6]: 5070 nM

CCCCCNc1ccc(C2C(CNCCc3ccccc3)c3ccccc3CN2CCCC(CN)NCCc2ccccc2)cc1 (stereo not drawn) [TRG 2412-17]
IC50 [1, 10]: 270 nM
IC50 [2, 11]: 1150 nM

CCNc1ccc(C2C(CNCCc3ccccc3)c3ccccc3CN2CCCC(CN)NCCOCCNCCc2ccccc2)cc1 (stereo not drawn) [TRG 2420-12]
IC50 [1, 10]: 79 nM
IC50 [2, 11]: 1530 nM

CCCCNc1ccc(C2C(CNC3CCCCC3)c3ccccc3CN2CCCCC(CN)NCCc2ccc3ccccc3c2)cc1 (stereo not drawn) [TRG 2411-96]
IC50 [1, 8]: 600 nM
IC50 [2, 9]: 1650 nM

CNC(CN)CN1Cc2ccccc2C(CNC2CCCCC2)C1c1ccc(C(F)(F)F)cc1 (stereo not drawn) [TRG 2405-148]
IC50 [1, 13]: 10300 nM
% Disp. MC-1 10 μM ([1]; first of duplicate): 63.7%
% Disp. MC-1 10 μM ([1]; second of duplicate): 57.4%
IC50 [2, 14]: 8950 nM

COc1ccc(CCNCC2c3ccccc3CN(CCCCC(CN)NCc3ccccc3)C2c2ccc(Cl)cc2Cl)cc1 (stereo not drawn) [TRG 2414-27]
IC50 [1, 5]: 2650 nM
IC50 [2, 6]: 2600 nM

NCC(CCCCN1Cc2ccccc2C(CNC2CCCCCC2)C1c1ccccc1Br)NCCc1ccccc1 (stereo not drawn) [Cmpd 234]
IC50 [1, 3]: 4410 nM
IC50 [2, 4]: 5280 nM

NCC(CCCCN1Cc2ccccc2C(CNC2CCCCCC2)C1c1cc(C(F)(F)F)cc(C(F)(F)F)c1)NCCc1ccccc1 (stereo not drawn) [TRG 2414-74]
IC50 [1, 5]: 11200 nM
IC50 [2, 6]: 4570 nM

NCCN1Cc2ccccc2C(CNC2CCCCC2)C1c1ccc[nH]1 (stereo not drawn) [TRG 2405-85]
IC50 [1, 13]: 5980 nM
% Disp. MC-1 10 μM ([1]; first of duplicate): 57.1%
% Disp. MC-1 10 μM ([1]; second of duplicate): 59.8%
IC50 [2, 14]: 33500 nM

CCN(CC)CC1c2ccccc2CN(CCCCC(CN)NC)C1c1ccc(Cl)cc1Cl (stereo not drawn) [TRG 2407-35]
IC50 [1, 7]: 6520 nM
IC50 [2, 7]: 3410 nM

CCNc1ccc(C2C(CNC3CCCCC3)c3ccccc3CN2CCCCC(CN)NCCc2ccc3ccccc3c2)cc1 (stereo not drawn) [TRG 2411-57]
IC50 [1, 8]: 920 nM
IC50 [2, 9]: 1190 nM

COc1ccc(CCNCC2c3ccccc3CN(CCCCC(N)CN)C2c2cccc(Oc3ccccc3)c2)cc1 (stereo not drawn) [TRG 2414-105]
IC50 [1, 5]: 3710 nM
IC50 [2, 6]: 2680 nM

COc1cccc(CNCC2c3ccccc3CN(CCCCC(CN)NCCc3ccccc3)C2c2ccc(Oc3ccccc3)cc2)c1 (stereo not drawn) [TRG 2414-138]
IC50 [1, 5]: 10600 nM
IC50 [2, 6]: 16600 nM

COc1ccc(CCNCC2c3ccccc3CN(CCCCC(CN)NCCc3ccccc3)C2c2ccc(Oc3ccccc3)cc2)cc1 (mixture of isomers) [TRG 2414-146]
IC50 [1, 5]: 8200 nM
IC50 [2, 6]: 16800 nM

CCCOc1ccc(C2C(CNC3CCCCCC3)c3ccccc3CN2CCCCC(N)CN)cc1 (stereo not drawn) [Cmpd 193]
IC50 [1, 3]: 1640 nM
IC50 [2, 4]: 6590 nM

COc1ccccc1CCNCC1c2ccccc2CN(CCCC[C@H](N)CN)C1c1cc(C(F)(F)F)cc(C(F)(F)F)c1 (stereo partly drawn) [TRG 2414-49]
IC50 [1, 5]: 3770 nM
IC50 [2, 6]: 320 nM

CCCCNC(CN)CCCCN1Cc2ccccc2C(CNCCc2ccccc2)C1c1ccc(NCC)cc1 (stereo not drawn) [TRG 2411-38]
IC50 [1, 8]: 90 nM
IC50 [2, 9]: 1330 nM

CCNc1ccc(C2C(CNCc3ccccc3C(F)(F)F)c3ccccc3CN2CCCCC(CN)NC)cc1 (stereo not drawn) [TRG 2407-53]
IC50 [1, 7]: 1270 nM
IC50 [2, 7]: 790 nM

NCC(CCCCN1Cc2ccccc2C(CNCc2ccccc2C(F)(F)F)C1c1cc(C(F)(F)F)cc(C(F)(F)F)c1)NCc1ccccc1 (stereo not drawn) [TRG 2414-43]
IC50 [1, 5]: 56900 nM
IC50 [2, 6]: 42000 nM

CC(C)Cc1ccc(C(C)CNC(CN)CCCCN2Cc3ccccc3C(CNC3CCCCCC3)C2c2ccc(Cl)cc2Cl)cc1 (stereo not drawn) [TRG 2414-36]
IC50 [1, 5]: 8650 nM
IC50 [2, 6]: 9920 nM

CCCCNc1ccc(C2C(CNCCc3ccccc3)c3ccccc3CN2CCCCC(CN)NCC)cc1 (stereo not drawn) [TRG 2411-74]
IC50 [1, 8]: 110 nM
IC50 [2, 9]: 2240 nM

CCCOc1ccc(C2C(CNCCc3cccc(Cl)c3)c3ccccc3CN2CCCCC(N)CN)cc1 (stereo not drawn) [Cmpd 280]
MC-1 IC50 [1, 3]: no fit
MC-4 IC50 [2, 4]: no fit

NCC(CCN1Cc2ccccc2C(CNC2CCCCC2)C1c1ccc(Cl)cc1Cl)NCCc1ccccc1 (mixture of isomers) [TRG 2408-102]
IC50 [1, 12]: 7050 nM
IC50 [2, 12]: 1880 nM

CNC(CN)CCCCN1Cc2ccccc2C(CNCCc2ccc(OC)cc2)C1c1ccc(Cl)cc1Cl (stereo not drawn) [TRG 2407-25]
IC50 [1, 7]: 1470 nM
IC50 [2, 7]: 620 nM

CNCCNC(CN)CCCN1Cc2ccccc2C(CNC2CCCCC2)C1c1ccc(Cl)cc1Cl (stereo not drawn) [TRG 2408-74]
IC50 [1, 12]: 1560 nM
IC50 [2, 12]: 4280 nM

CNCCNC(CN)CCCN1Cc2ccccc2C(CNC2CCCCC2)C1c1ccc(-c2ccccc2)cc1 (stereo not drawn) [TRG 2408-84]
IC50 [1, 12]: 2500 nM
IC50 [2, 12]: 15400 nM

NCC(N)CCCCN1Cc2ccccc2C(CNC2CCCCC2)C1c1ccc(Oc2ccccc2)cc1 (stereo not drawn) [TRG 2414-157]
IC50 [1, 5]: 1120 nM
IC50 [2, 6]: 4110 nM

NCCNC(CN)CCCCN1Cc2ccccc2C(CNC2CCCCC2)C1c1ccc(-c2ccccc2)cc1 (stereo not drawn) [TRG 2408-53]
IC50 [1, 12]: 1000 nM
IC50 [2, 12]: 14800 nM

CC(C)Cc1ccc(C(C)CNC(CN)CCCCN2Cc3ccccc3C(CNCc3ccccc3)C2c2ccc(Cl)cc2Cl)cc1 (stereo not drawn) [TRG 2414-32]
IC50 [1, 5]: 28300 nM
IC50 [2, 6]: 32100 nM
